According to US8076321B2, “Compositions for treatment of systemic mastocytosis” (priority 2005, dated 2011):
pIC50: −log10 of the molar value. ≈ marks a conversion by molar mass, not a printed value. Where “and” joins values, the source holds several entries; their conditions need not be identical. Equal entries are not always repeated. Entries after “also recorded” stand apart in the source; their conditions may differ. Where two headings read alike, the source gives them in different places.

Key:
[1] = system: HMC-1.1 cells; assay: cells; conditions: Homo sapiens, read-out: IC50, 3H-thymidine uptake in HMC-1.1 cells
[2] = system: HMC-1.2 cells; assay: cells; conditions: Homo sapiens, read-out: IC50, 3H-thymidine uptake in HMC-1.2 cells
[3] = system: HMC-1.1 cells; assay: Apoptosis in HMC-1.1 cells (light and electron microscopy, Tunel); conditions: 24 hours; for apoptosis in HMC-1.1 cells by Tunel assay: 1 μM; for apoptosis in HMC-1.1 cells by light microscopy: various concentrations
[4] = system: non-transfected Ba/F3 cells; conditions: not shown
[5] = system: HMC-1.2 cells; assay: Apoptosis in HMC-1.2 cells (light and electron microscopy, annexin V/PI, Tunel); type: cell-based, human; conditions: 24 hours; for apoptosis in HMC-1.2 cells by light microscopy: various concentrations
[6] = system: Ton.Kit.wt cells (Ba/F3 with inducible wt KIT); assay: cells; conditions: Mus musculus, BaF3, 48 h, read-out: IC50, SCF-dependent growth of doxycycline-exposed Ton.Kit.wt cells
[7] = biological target: T1, wt KIT (Ton.Kit.wt Ba/F3 cells) (Homo sapiens, UniProt P10721); assay: KIT phosphorylation by immunoprecipitation and Western blotting in Ton.Kit.wt cells; type: cell-based; conditions: 1 μM, 4 hours; doxycycline, SCF 100 ng/ml
T1 construct: expressed in transfected cells
T1 sequence (P10721 26-976): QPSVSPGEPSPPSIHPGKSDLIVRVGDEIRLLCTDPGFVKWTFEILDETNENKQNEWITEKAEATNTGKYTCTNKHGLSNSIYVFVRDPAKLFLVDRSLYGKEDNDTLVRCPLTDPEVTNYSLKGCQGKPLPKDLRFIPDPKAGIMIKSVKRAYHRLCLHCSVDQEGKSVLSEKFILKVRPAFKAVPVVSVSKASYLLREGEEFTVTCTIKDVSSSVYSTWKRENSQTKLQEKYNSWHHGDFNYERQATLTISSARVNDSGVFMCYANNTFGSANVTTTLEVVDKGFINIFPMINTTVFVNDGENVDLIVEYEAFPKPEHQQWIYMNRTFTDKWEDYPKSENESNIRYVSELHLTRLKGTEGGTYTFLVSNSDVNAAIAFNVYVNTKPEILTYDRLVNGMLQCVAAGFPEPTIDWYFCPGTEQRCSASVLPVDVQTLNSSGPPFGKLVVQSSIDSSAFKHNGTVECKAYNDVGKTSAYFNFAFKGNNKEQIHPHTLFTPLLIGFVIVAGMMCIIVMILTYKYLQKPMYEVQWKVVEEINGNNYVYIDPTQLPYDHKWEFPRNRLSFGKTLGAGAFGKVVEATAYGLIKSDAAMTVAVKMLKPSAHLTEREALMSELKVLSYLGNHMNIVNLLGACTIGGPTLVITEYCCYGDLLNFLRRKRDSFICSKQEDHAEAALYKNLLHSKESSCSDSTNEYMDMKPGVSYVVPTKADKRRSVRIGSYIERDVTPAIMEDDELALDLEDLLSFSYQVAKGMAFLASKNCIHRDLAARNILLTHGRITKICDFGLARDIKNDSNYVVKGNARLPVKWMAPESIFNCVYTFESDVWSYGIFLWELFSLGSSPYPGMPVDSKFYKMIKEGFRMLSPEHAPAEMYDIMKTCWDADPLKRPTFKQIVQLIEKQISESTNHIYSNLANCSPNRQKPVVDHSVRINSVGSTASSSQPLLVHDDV
Procedure: (§1) In case of Ton.Kit.wt cells, KIT phosphorylation is induced by adding rhSCF (100 ng/ml). Immunoprecipitation (IP) and Western blotting are performed as described previously.^32 In brief, cells are washed at 4° C. and resuspended in RIPA buffer (1 ml buffer per 10^8 cells) consisting of 50 mM Tris, 150 mM sodium chloride (NaCl), 1% nonidet P40 (NP-40), 0.25% deoxycholic acid, 0.1% sodium dodecyl sulfate (SDS), 1 mM ethylene-diamine-tetraacetic acid (EDTA), 1 mM sodium fluoride (NaF), 1 mM phenylmethylsulfonyl fluoride (PMSF) and 1 mM sodium orthovanadate (Na3VO4). After incubation in RIPA buffer supplemented with proteinase inhibitor cocktail (Roche) for 30 minutes at 4° C. (vortexed vigorously every 5 minutes), lysates are centrifuged to remove insoluble particles. For IP, lysates from 1×10^7 cells are incubated with anti-KIT antibody SR1^37 (kindly provided by Dr. V. Broudy, University of Washington, Seattle, Wash.) or with the anti-KIT antibody 1C1^38 (kindly provided by Dr. H.-J. Bühring, University of Tübingen, Germany) and protein G Sepharose beads (Amersham) in IP-buffer (50 mM Tris-Cl, pH 7.4, 150 mM NaCl, 100 mM NaF, and 1% NP40) at 4° C. overnight. Then, beads are washed 3 times in IP buffer. […] Membranes are blocked for 1 hour in 5% blocking reagent (Roche) and are then incubated with anti-KIT antibody 1C1 or with the monoclonal antibody 4G10 (Upstate Biotechnology, Lake Placid, N.Y.) directed against tyrosine-phosphorylated proteins, at 4° C. overnight. Antibody reactivity is made visible by sheep anti-mouse IgG antibody and Lumingen PS-3 detection reagent (both from Amersham), and a CL-Xposure film (Pierce Biotechnology, Rockford, Ill.).
(§2) In case of Ton.Kit.wt cells, KIT phosphorylation was induced by adding rhSCF (100 ng/ml). […]

[8] = biological target: T2, KIT V560G (HMC-1.1 cells) (Homo sapiens, UniProt P10721, V560G); assay: KIT phosphorylation by immunoprecipitation and Western blotting in HMC-1.1 cells; type: cell-based; conditions: 1 μM, 4 hours
T2 construct: endogenous in cells; host or cells: HMC-1.1 (subclone of the human mast cell leukemia line HMC-1)
T2 sequence (P10721 26-976 V560G): as the sequence (P10721 26-976) above, with V535G counted along it
Procedure: as §1, §2

[9] = system: HMC-1.2 cells
[10] = system: HMC-1.1 cells
[11] = system: HMC-1.2 cells; assay: Cell surface antigen expression on HMC-1.2 cells by flow cytometry; type: cell-based, human; conditions: 24 hours
Procedure: After incubation with drugs, HMC-1 cells are washed and subjected to single color flow cytometry using PE-conjugated antibodies against MC antigens known to be overexpressed on neoplastic MC in SM (compared to normal MC) and/or are expressed at an early stage of mastopoiesis (CD2, CD13, CD63, CD117, CD164, CD203c).^45-47 Flow cytometry is performed on a FACSan (Becton Dickinson) as described previously.^29
Flow cytometry was performed on a FACScan (Becton Dickinson) as described.^30,37,51

[12] = system: normal bm cells; assay: 3H-thymidine uptake in normal bone marrow cells (control); type: cell-based, human; conditions: control sample, not shown
Procedure: Both patients gave informed consent before bm puncture. The bm aspirate is obtained from the posterior iliac crest and collected in syringes containing preservative-free heparin. Cells are layered over Ficoll to isolate mononuclear cells (MNC).
In select experiments, HMC-1 cells (both subclones) are incubated with various concentrations of IFNα (0.1-500,000 U/ml) or 2CdA (0.005-10 μg/ml).
The bm aspirate samples were collected in syringes containing preservative-free heparin. Cells were layered over Ficoll to isolate mononuclear cells (MNC). […] Both patients gave written informed consent before bm puncture or blood donation. The study was approved by the local institutional review board and was conducted in accordance with the declaration of Helsinki.
Filters were air-dried, and the bound radioactivity was counted in a β-counter (Top-Count NXT, Packard Bioscience). […] All experiments were performed in triplicates.

[13] = system: HMC-1.2 cells; assay: Apoptosis in HMC-1.2 cells (light and electron microscopy, annexin V/PI, Tunel); type: cell-based, human; conditions: 1 μM, 24 hours
Procedure: For flow cytometric determination of apoptosis and cell viability, combined annexin V/propidium iodide staining is performed. […] Thereafter, cells are washed in PBS and then are incubated with annexinV-APC (Alexis Biochemicals, Lausen, Switzerland) in binding buffer containing HEPES (10 mM, pH 7.4), NaCl (140 mM), and CaCl2 (2.5 mM). Thereafter, propidium iodide (1 μg/ml) is added. Cells are then washed and analyzed by flow cytometry on a FACSCalibur (Becton Dickinson).

[14] = Human trials, Maximum Tolerated Dose; type: in vivo
[15] = 1 μM, dasatinib various concentrations
[16] = PKC412 1 μM, dasatinib various concentrations

| SMILES | apoptosis in HMC-1.1 cells by Tunel assay [3] | apoptosis in HMC-1.1 cells by light microscopy [3] | apoptosis in HMC-1.2 cells by light microscopy [5] | pIC50 [6] | SCF-induced phosphorylation of KIT in Ton.Kit.wt cells [7] | KIT phosphorylation in HMC-1.1 cells [8] | pIC50 [9] | pIC50 [10] | expression of CD antigens on HMC-1.2 cells ([11]; 1 μM) | expression of KIT (CD117) on HMC-1.2 cells [11, 15] | apoptosis in HMC-1.2 cells by annexinV/propidium iodide flow cytometry and Tunel assay [13] | other results |
| --- | --- | --- | --- | --- | --- | --- | --- | --- | --- | --- | --- | --- |
| Nc1nc(Cl)nc2c1ncn2[C@H]1C[C@H](O)[C@@H](CO)O1 [2CdA, 2-chlorodeoxyadenosine] |  |  |  |  |  |  |  |  |  |  |  | IC50 [1]: 0.1 to 0.3 µg/mL (≈ 0.35 to 1.05 µM); IC50 [2]: 0.01 to 0.02 µg/mL (≈ 0.035 to 0.07 µM) |
| Cc1cn(-c2cc(NC(=O)c3ccc(C)c(Nc4nccc(-c5cccnc5)n4)c3)cc(C(F)(F)F)c2)cn1 [AMN107, 4-Methyl-3-[[4-(3-pyridinyl)-2-pyrimidinyl]amino]-N-[5-(4-methyl-1H-imidazol-1-yl)-3-(trifluoromethyl)phenyl]benzamide] | potent apoptosis-inducing effects only in HMC-1.1 cells | induce apoptosis in both HMC-1 subclones in a dose-dependent manner | induce apoptosis in both HMC-1 subclones in a dose-dependent manner | 6.52 to 7.52 | decreased the SCF-induced phosphorylation of KIT | strongly reduced KIT phosphorylation | 5.30 to 6.00 | 8.00 to 8.52 and 8.00 to 8.30 | no significant effects | slight decrease |  | growth-inhibitory effect on control (non-transfected) Ba/F3 cells [4]: neither doxycycline (1 μg/ml), nor the TK inhibitors (imatinib, PKC412, AMN107), showed growth-inhibitory effects |
| CO[C@@H]1[C@H](N(C)C(=O)c2ccccc2)C[C@H]2O[C@]1(C)n1c3ccccc3c3c4c(c5c6ccccc6n2c5c31)C(=O)NC4 [PKC412, N-[(9S,10R,11R,13R)-2,3,10,11,12,13-hexahydro-10-methoxy-9-methyl-1-oxo-9,13-epoxy-1H,9H-diindolo[1,2,3-gh:3′,2′,1′-1m]pyrrolo[3,4-j][1,7]benzodiazonin-11-yl]-N-methylbenzamide] | also induced apoptosis in both cell lines; also recorded: produced apoptosis in most HMC-1.1 and HMC-1.2 cells | induce apoptosis in both HMC-1 subclones in a dose-dependent manner; also recorded: also found to induce apoptosis in both HMC-1 subclones | induce apoptosis in both HMC-1 subclones in a dose-dependent manner; also recorded: also found to induce apoptosis in both HMC-1 subclones |  | decreased the SCF-induced phosphorylation of KIT | decreased phosphorylation of KIT |  |  |  | slight decrease | induce apoptosis in HMC-1.2; also recorded: also induced apoptosis in both cell lines; also recorded: produced apoptosis in most HMC-1.1 and HMC-1.2 cells | apoptosis in HMC-1.2 cells by electron microscopy ([5]; 1 μM): produce apoptosis in HMC-1.2 cells; effect on 3H-thymidine uptake in normal bm cells [12]: showed no effect; also recorded: no effects; expression of CD203c on HMC-1.2 cells ([11]; 1 μM): no significant effects; expression of CD63 on HMC-1.2 cells ([11]; PKC412 1 μM or various, dasatinib various concentrations): significant decrease; also recorded: dose-dependently decreased expression of CD63; expression of CD2 on HMC-1.2 cells [11, 16]: significant decrease; expression of CD13 on HMC-1.2 cells [11, 16]: no significant effects; expression of CD164 on HMC-1.2 cells [11, 16]: significant decrease; Maximum Tolerated Dose (MTD), total dose [14]: 225 mg/day |
| Cc1nc(Nc2ncc(C(=O)Nc3c(C)cccc3Cl)s2)cc(N2CCN(CCO)CC2)n1 [dasatinib, reference compound] |  |  |  | 8.00 to 9.00 |  |  | 6.30 to 6.70 |  |  |  |  |  |
| Cc1ccc(NC(=O)c2ccc(CN3CCN(C)CC3)cc2)cc1Nc1nccc(-c2cccnc2)n1 [imatinib, reference compound] | induced apoptosis only in HMC-1.1 cells; also recorded: potent apoptosis-inducing effects only in HMC-1.1 cells | produce apoptosis in HMC-1.1 cells | showed no effects on HMC-1.2 cells |  | decreased the SCF-induced phosphorylation of KIT | reduced KIT phosphorylation |  | 7.52 to 8.00 | no significant effects | slight decrease | showed no effects on HMC-1.2 cells | antiproliferative effect on HMC-1.2 cells ([9]; 48 hours): no significant antiproliferative effects |
